One data set relates to B. cenocepacia J2315. In kind it is cell-based, Burkholderia cenocepacia. To be noted: 48 h. The source says:
(§1) Bacteria used in this study were Escherichia coli ATCC 25922 and O18K1H7, Staphylococcus aureus ATCC 25923 and ATCC 29213, Pseudomonas aeruginosa ATCC 27853, Staphylococcus epidermidis ATCC 12228, Enterococcus faecalis ATCC 29212, Bacillus subtilis DSM 4181, Listeria monocytogenes DSM 20600, Salmonella typhimurium ATCC 14028, Acinetobacter baumannii ATCC 19606 and 17978, Klebsiella pneumoniae ATCC 13883 and 700603, Stenotrophomonas maltophilia ATCC 13637 and Burkholderia cenocepacia J2315. In addition to reference strains, a clinical isolate of E. faecalis vancomycin-resistant (VREF, strain M), and three clinical isolates of S. aureus methicillin-resistant (MRSA, strains E, G and 11), kindly provided by Dr. Lucilla Dolzani, were used. All MRSA strains are resistant to GEN, IPM, OXA, PEN, CIP and CEF; the S. aureus E strain is also resistant to CLI and ERY. VREF strain is resistant to AMK, ATM, GEN, NET, PEN, TEC, TET, TOB and VAN.
(§2) For the assays, overnight bacterial cultures were diluted 1:30 in fresh Mueller-Hinton Broth (MHB, Difco) and incubated at 37°C with shaking for approximately 2h.
(§3) The antimicrobial activity of USCLs was determined by the Minimum Inhibitory Concentration (MIC) assay, according to the guidelines of CLSI (Clinical & Laboratory Standards Institute) and described in [30, 31]. Briefly, the assays were performed in 96-well microplates in appropriate broth (MHB or SAB). […] […] The fungal suspension in SAB broth was used at a final concentration of 5 × 10^4 cells/mL. Microplates were then incubated at 30°C for 48h. The MIC value was taken as the lowest concentration of USCLs resulting in the complete inhibition of visible bacterial or fungal growth after appropriate incubation time. Results derive from at least three independent experiments carried out in duplicate.

The subject of the next data set is S. aureus ATCC 25923. In kind it is cell-based, Staphylococcus aureus. The settings on record: ATCC 25923, 24 h.
From the text: as §1, §2
(§4) The antimicrobial activity of USCLs was determined by the Minimum Inhibitory Concentration (MIC) assay, according to the guidelines of CLSI (Clinical & Laboratory Standards Institute) and described in [30, 31]. Briefly, the assays were performed in 96-well microplates in appropriate broth (MHB or SAB). […] For bacteria, a mid-log phase bacterial suspension at 2.5 × 10^5 CFU/mL in MHB was used, and the microplates incubated at 37°C for 24h. The fungal suspension in SAB broth was used at a final concentration of 5 × 10^4 cells/mL. Microplates were then incubated at 30°C for 48h. The MIC value was taken as the lowest concentration of USCLs resulting in the complete inhibition of visible bacterial or fungal growth after appropriate incubation time. Results derive from at least three independent experiments carried out in duplicate.

A further data set has as its system S. aureus ATCC 29213. In kind it is cell-based, Staphylococcus aureus. The settings on record: ATCC 29213, 24 h.
From the text: as §1, §2, §4

For data set [1], the system named is S. aureus G (MRSA clinical isolate). In kind it is cell-based, Staphylococcus aureus. The settings on record: G ( clinical isolate, 24 h).
From the text: as §1, §2, §4

Data set [2] concerns S. aureus E (MRSA clinical isolate). It counts as cell-based, Staphylococcus aureus. To be noted: E ( clinical isolate, 24 h).
From the text: as §1, §2, §4

The test system of data set [3] is S. aureus 11 (MRSA clinical isolate). In kind it is cell-based, Staphylococcus aureus. To be noted: 11 ( clinical isolate, 24 h).
From the text: as §1, §2, §4

In another data set the test system is E. faecalis ATCC 29212. In kind it is cell-based, Enterococcus faecalis. The settings on record: ATCC 29212, 24 h.
From the text: as §1, §2, §4

Data set [4] can be described thus: RP-HPLC retention time (hydrophobicity). The settings on record: stated to reliably reflect the hydrophobicity in aqueous solution, assessed and provided by GenScript. It counts as physicochemical. How it is done: GenScript (Piscataway, NJ, USA) carried out the custom synthesis of USCLs by using high efficient solid phase peptide synthesis. The fatty acid was conjugated to the N-terminus of the peptide using the same procedure followed to attach protected amino acids to the growing peptide chain for synthesis. The purity (>90%), sequence and molecular weight of USCLs were assessed and provided by GenScript using RP-HPLC and ESI-MS. USCLs were dissolved in sterile water or DMSO at 10 mg/mL, according to manufacturer's indications.

The subject of a further data set is C. albicans SC 5314. In kind it is cell-based, Candida albicans. To be noted: SC 5314, 48 h. How it is done:
(§5) Fungal strains used were Candida albicans ATCC 90029 and SC5314. Fungi were grown on Sabouraud dextrose (SAB, Difco) agar plates at 30°C for 48h. The initial fungal inoculum was prepared by picking and suspending five colonies in 5 mL of sterile PBS.
as §4

Another data set has as its system C. albicans ATCC 90029. In kind it is cell-based, Candida albicans. The settings on record: ATCC 90029, 48 h. The protocol: as §5, §4
Data set [5] relates to L. monocytogenes DSM 20600. In kind it is cell-based, Listeria monocytogenes. The settings on record: DSM 20600, 24 h.
From the text: as §1, §2, §4

The test system of another data set is A. baumannii ATCC 19606. In kind it is cell-based, Acinetobacter baumannii. The settings on record: ATCC 19606, 24 h.
From the text: as §1, §2, §4

The test system of another data set is A. baumannii ATCC 17978. It counts as cell-based, Acinetobacter baumannii. To be noted: ATCC 17978, 24 h.
From the text: as §1, §2, §4

Data set [6] relates to K. pneumoniae ATCC 700603. In kind it is cell-based, Klebsiella pneumoniae. The settings on record: ATCC 700603, 24 h.
From the text: as §1, §2, §4

The test system of a further data set is K. pneumoniae ATCC 13883. It counts as cell-based, Klebsiella pneumoniae. To be noted: ATCC 13883, 24 h.
From the text: as §1, §2, §4

Data set [7] relates to S. maltophilia ATCC 13637. In kind it is cell-based, Stenotrophomonas maltophilia. To be noted: ATCC 13637, 48 h.
From the text: as §1, §2, §3

In a further data set the test system is E. coli O18K1H7. In kind it is cell-based, Escherichia coli. The settings on record: O18K1H7, 24 h.
From the text: as §1, §2, §4

The subject of data set [8] is S. typhimurium ATCC 14028. In kind it is cell-based, Salmonella typhimurium. To be noted: ATCC 14028, 24 h.
From the text: as §1, §2, §4

Data set [9] concerns E. faecalis M (VREF clinical isolate). In kind it is cell-based, Enterococcus faecalis. The settings on record: M (VREF clinical isolate, 24 h).
From the text: as §1, §2, §4

In a further data set the test system is B. subtilis DSM 4181. It counts as cell-based, Bacillus subtilis. To be noted: DSM 4181, 24 h.
From the text: as §1, §2, §4

The next data set relates to E. coli ATCC 25922. It counts as cell-based, Escherichia coli. The settings on record: ATCC 25922, 24 h.
From the text: as §1, §2, §4

Another data set has as its system P. aeruginosa ATCC 27853. In kind it is cell-based, Pseudomonas aeruginosa. The settings on record: ATCC 27853, 24 h.
From the text: as §1, §2, §4

These results are taken from paper PMC6383929, “Design, antimicrobial activity and mechanism of action of Arg-rich ultra-short cationic lipopeptides” (PLoS ONE, 2019).

Each structure is given as a SMILES string. Values after ≈ are worked out from the molar mass of the structure shown. Where a SMILES comes first, the peptide text is derived from it. The star is where a group is joined. Lauroyl = CCCCCCCCCCCC(=O)*

With `CCCCCCCCCCCC(=O)N[C@@H](CCCNC(=N)N)C(=O)N[C@@H](CCCNC(=N)N)C(=O)N[C@@H](Cc1ccccc1)C(=O)N[C@@H](Cc1c[nH]c2ccccc12)C(N)=O` [Lau-RRFW, Lau-RRFW-NH2] (Lauroyl-RRFW-NH2), the MIC against B. cenocepacia J2315 stood at 12.5 µg/mL (≈ 14.8 µM); with S. aureus ATCC 25923, 3.125 µg/mL (≈ 3.7 µM); against S. aureus ATCC 29213 it was 3.125 µg/mL (≈ 3.7 µM); in [1], 6.25 µg/mL (≈ 7.4 µM); in data set [2] it was 3.125 µg/mL (≈ 3.7 µM); in data set [3], 6.25 µg/mL (≈ 7.4 µM). Further, the MIC with E. faecalis ATCC 29212 is 6.25 µg/mL (≈ 7.4 µM); against C. albicans SC 5314 it was 12.5 µg/mL (≈ 14.8 µM); against C. albicans ATCC 90029 it was 3.125 µg/mL (≈ 3.7 µM); in [5] it was 3.125 µg/mL (≈ 3.7 µM); against A. baumannii ATCC 19606, 12.5 µg/mL (≈ 14.8 µM); in the data set on A. baumannii ATCC 17978 it was 12.5 µg/mL (≈ 14.8 µM). Further, the MIC turned out to be 25 µg/mL (≈ 29.6 µM) in data set [6], 50 µg/mL (≈ 59.2 µM) against K. pneumoniae ATCC 13883, 6.25 µg/mL (≈ 7.4 µM) in [7] and 12.5 µg/mL (≈ 14.8 µM) against E. coli O18K1H7. In addition, the Retention time in data set [4] turned out to be 22.609 min.

Take `CCCCCCCCCCCC(=O)N[C@@H](CCCNC(=N)N)C(=O)N[C@@H](CCCNC(=N)N)C(=O)N[C@H](C(=O)N[C@@H](Cc1c[nH]c2ccccc12)C(N)=O)[C@@H](C)CC` [Lau-RRIW, Lau-RRIW-NH2] (Lauroyl-RRIW-NH2): the MIC was found to be 25 µg/mL (≈ 30.8 µM) in data set [8]; 6.25 µg/mL (≈ 7.71 µM) in the data set on B. cenocepacia J2315; 3.125 µg/mL (≈ 3.85 µM) in the data set with S. aureus ATCC 25923; 3.125 µg/mL (≈ 3.85 µM) in the data set on S. aureus ATCC 29213; 3.125 µg/mL (≈ 3.85 µM) in [1]; 3.125 µg/mL (≈ 3.85 µM) in data set [2]. The MIC in data set [9] was 6.25 µg/mL (≈ 7.71 µM); against E. faecalis ATCC 29212 it was 6.25 µg/mL (≈ 7.71 µM); in the data set on C. albicans SC 5314, 12.5 µg/mL (≈ 15.4 µM); against C. albicans ATCC 90029 it was 3.125 µg/mL (≈ 3.85 µM); in data set [5] it was 3.125 µg/mL (≈ 3.85 µM); in the data set with B. subtilis DSM 4181 it was 3.125 µg/mL (≈ 3.85 µM). For the same molecule, the MIC in the data set on A. baumannii ATCC 19606 was found to be 12.5 µg/mL (≈ 15.4 µM); against A. baumannii ATCC 17978, 25 µg/mL (≈ 30.8 µM); in [7], 12.5 µg/mL (≈ 15.4 µM); against E. coli ATCC 25922, 12.5 µg/mL (≈ 15.4 µM); against E. coli O18K1H7 it was 12.5 µg/mL (≈ 15.4 µM); against P. aeruginosa ATCC 27853 it was 12.5 µg/mL (≈ 15.4 µM). Moreover, the Retention time in data set [4] came to 20.957 min.

With `CCCCCCCCCCCC(=O)N[C@@H](CCCNC(=N)N)C(=O)N[C@@H](CCCNC(=N)N)C(=O)N[C@@H](Cc1ccccc1)C(=O)N[C@@H](Cc1c[nH]c2ccccc12)C(=O)N[C@@H](CCCNC(=N)N)C(=O)N[C@@H](CCCNC(=N)N)C(N)=O` [Lp-F^RR, Lau-RRFWRR-NH2] (Lauroyl-RRFWRR-NH2), the MIC in data set [8] amounted to 25 µg/mL (≈ 21.6 µM); against B. cenocepacia J2315, 12.5 µg/mL (≈ 10.8 µM); against S. aureus ATCC 25923, 3.125 µg/mL (≈ 2.7 µM); in [1], 3.125 µg/mL (≈ 2.7 µM); in data set [2] it was 3.125 µg/mL (≈ 2.7 µM); in [3] it was 3.125 µg/mL (≈ 2.7 µM). The MIC is 6.25 to 12.5 µg/mL in data set [9]; 6.25 µg/mL (≈ 5.4 µM) against E. faecalis ATCC 29212; 100 µg/mL (≈ 86.4 µM) against C. albicans SC 5314; 1.56 µg/mL (≈ 1.35 µM) against C. albicans ATCC 90029; 1.56 µg/mL (≈ 1.35 µM) in data set [5]; 1.56 µg/mL (≈ 1.35 µM) with B. subtilis DSM 4181. The MIC in the data set on A. baumannii ATCC 17978 was 25 µg/mL (≈ 21.6 µM); in data set [6], 25 µg/mL (≈ 21.6 µM); with K. pneumoniae ATCC 13883, 25 µg/mL (≈ 21.6 µM); in [7] it was 12.5 µg/mL (≈ 10.8 µM); against E. coli ATCC 25922, 12.5 µg/mL (≈ 10.8 µM); against E. coli O18K1H7, 25 µg/mL (≈ 21.6 µM). The MIC against P. aeruginosa ATCC 27853 is 12.5 µg/mL (≈ 10.8 µM). The Retention time in data set [4] worked out at 22.087 min.

For orientation: MIC means the lowest concentration that inhibits growth of the organism. Lower therefore signals greater potency.
